This is an account of results in US20250154607A1, “ISOTHERMAL AMPLIFICATION OF PATHOGENS” (priority 2021, published 2025).

In assay [1] the target is T1, RNase A (Bos taurus, UniProt P61823).
T1 sequence (P61823 27-150): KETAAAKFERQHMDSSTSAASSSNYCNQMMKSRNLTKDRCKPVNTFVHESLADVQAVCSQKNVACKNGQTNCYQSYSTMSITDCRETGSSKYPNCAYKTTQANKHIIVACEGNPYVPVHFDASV
The assay is described as follows: Influenza B virus APA assay with RNase A in ELB (Elution/Lysis Buffer). Format: biochemical. The conditions noted are these: RNAse A 10 μg/ml; 2 minutes 58° C. in ELB with 0.2% SDS, without or with 10 mM DTT; β-CD 4% final. As to the method: FIGS. 12A-12B depict data related to RNase A inactivation in an influenza B assay like the one in Example 4, with DTT in ELB (Elution/Lysis Buffer). […] After incubation, lyophilized APA reagents co-incubated 2 minutes 58° C., containing β-CD (4% final) were dissolved with the heated solutions, and FAM fluorescence collected every 15 seconds to monitor APA. […] The inclusion of DTT enables unimpeded operation of this POC influenza detection system in a mock sample containing very high level of purified RNase A ([…]). Moreover, while currently available methods can only achieve irreversible ribonuclease inactivation at a maximum 200 ng/ml, the compositions and methods provided herein show utility with 10 μg/ml to accommodate potentially larger amounts in patient samples.

Assay [2] has as its target Taq polymerase (Thermus aquaticus, UniProt P19821). To be noted: cited from earlier work.
Assay [3] has as its system nasal ribonuclease. Briefly: Rapid irreversibility of nasal ribonuclease inactivation (RNase alert assay). The conditions noted are these: 0.2% SDS with or without 40 mM cysteine, 60° C.; immediately diluted into 4% β-cyclodextrin. Format: biochemical. As to the method: FIG. 13 depicts data related to the rapid irreversibility of nasal ribonuclease inactivation. 5 μl concentrated nasal swab eluate in TE, an amount equivalent to 2% on a typical nasal swab, was mixed with 45 μl of either lysis buffer containing 0.2% SDS (RBS, solid line), RBS containing 40 mM cysteine (squares), or water (dotted line) all preheated to 60° C. 5 μl was immediately diluted into 45 μl 4% β-cyclodextrin to sequester detergent. The recovered RNase activity was determined with an RNase alert assay; as control for the assay, an equivalent amount of nasal swab eluate was directly added without prior treatment (X). […] Unexpectedly, the effectively irreversible inactivation of ribonucleases thus observed during the practice of this invention was virtually instantaneous (monitored by directly testing ribonuclease activity), unlike prior art methods based upon heat. Also shown in this example is that the inactivation properties described for RNase A are also attributable to ribonucleases naturally occurring in nasal exudates.

Sequence of Taq polymerase (P19821 whole entry): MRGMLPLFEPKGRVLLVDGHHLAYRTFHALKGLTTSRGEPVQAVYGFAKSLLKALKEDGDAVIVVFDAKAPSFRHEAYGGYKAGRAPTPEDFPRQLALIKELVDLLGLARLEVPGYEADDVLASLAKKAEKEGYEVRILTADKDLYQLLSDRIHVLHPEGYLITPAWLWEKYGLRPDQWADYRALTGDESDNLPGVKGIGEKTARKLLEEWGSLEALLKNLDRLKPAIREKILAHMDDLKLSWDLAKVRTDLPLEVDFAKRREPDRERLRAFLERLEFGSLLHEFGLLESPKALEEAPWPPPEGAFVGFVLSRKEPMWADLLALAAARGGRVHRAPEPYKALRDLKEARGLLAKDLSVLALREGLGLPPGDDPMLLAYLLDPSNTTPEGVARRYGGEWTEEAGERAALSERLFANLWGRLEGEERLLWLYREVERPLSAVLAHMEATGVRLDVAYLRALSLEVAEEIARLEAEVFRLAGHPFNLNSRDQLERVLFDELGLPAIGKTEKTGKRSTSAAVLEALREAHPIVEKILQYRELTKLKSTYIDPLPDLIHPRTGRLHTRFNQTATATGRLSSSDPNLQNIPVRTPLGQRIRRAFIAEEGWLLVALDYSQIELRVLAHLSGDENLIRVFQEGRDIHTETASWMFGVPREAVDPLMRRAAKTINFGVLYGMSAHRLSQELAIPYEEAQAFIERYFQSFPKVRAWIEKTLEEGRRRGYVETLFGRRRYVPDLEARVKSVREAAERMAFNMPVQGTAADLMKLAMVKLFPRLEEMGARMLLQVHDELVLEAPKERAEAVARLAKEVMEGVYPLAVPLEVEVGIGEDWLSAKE

`CCCCCCCCCCCCOS(=O)(=O)[O-].[Na+]` [SDS, sodium dodecyl sulfate]: the “Influenza B virus APA performance in presence of RNAse A” value in assay [1] was “recovery of inhibitory levels of RNAse A”. In addition, the “SDS concentration with inhibitory effect for PCR with Taq polymerase” value in assay [2] was “greater than 0.01 % (w/v)”. Also, the “Reversibility of nasal RNase inactivation after SDS sequestration” value in assay [3] is given as “virtually completely reversible”.
